The values below come from patent publication US8741602B2, “Method for producing glucuronic acid conjugate using Saccharomyces cerevisiae” (Toyama Prefecture, priority 2010, dated 2014).

The target of one data set is T1, UGT1A1 (Homo sapiens, UniProt P22309).
T1 construct: host or cells: Schizosaccharomyces pombe
T1 sequence (P22309 26-533): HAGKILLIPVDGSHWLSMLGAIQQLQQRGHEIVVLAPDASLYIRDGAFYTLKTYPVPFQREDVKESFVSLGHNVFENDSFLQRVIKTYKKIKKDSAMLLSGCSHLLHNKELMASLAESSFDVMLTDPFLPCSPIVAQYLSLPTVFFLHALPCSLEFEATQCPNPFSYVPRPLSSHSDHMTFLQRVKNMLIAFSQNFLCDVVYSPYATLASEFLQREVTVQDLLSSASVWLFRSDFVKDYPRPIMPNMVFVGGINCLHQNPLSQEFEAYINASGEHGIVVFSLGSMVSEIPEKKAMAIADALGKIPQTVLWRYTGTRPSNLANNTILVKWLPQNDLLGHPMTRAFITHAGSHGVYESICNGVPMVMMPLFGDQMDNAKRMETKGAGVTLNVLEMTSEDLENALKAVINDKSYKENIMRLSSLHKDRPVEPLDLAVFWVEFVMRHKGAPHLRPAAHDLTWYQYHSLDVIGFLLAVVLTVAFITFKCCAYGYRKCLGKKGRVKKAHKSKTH
Conditions: fission yeast, Dragan et al.; cited from earlier work.

The target in data set [1] is T2, UGT1A6 (Homo sapiens, UniProt P19224).
T2 sequence (P19224 27-532): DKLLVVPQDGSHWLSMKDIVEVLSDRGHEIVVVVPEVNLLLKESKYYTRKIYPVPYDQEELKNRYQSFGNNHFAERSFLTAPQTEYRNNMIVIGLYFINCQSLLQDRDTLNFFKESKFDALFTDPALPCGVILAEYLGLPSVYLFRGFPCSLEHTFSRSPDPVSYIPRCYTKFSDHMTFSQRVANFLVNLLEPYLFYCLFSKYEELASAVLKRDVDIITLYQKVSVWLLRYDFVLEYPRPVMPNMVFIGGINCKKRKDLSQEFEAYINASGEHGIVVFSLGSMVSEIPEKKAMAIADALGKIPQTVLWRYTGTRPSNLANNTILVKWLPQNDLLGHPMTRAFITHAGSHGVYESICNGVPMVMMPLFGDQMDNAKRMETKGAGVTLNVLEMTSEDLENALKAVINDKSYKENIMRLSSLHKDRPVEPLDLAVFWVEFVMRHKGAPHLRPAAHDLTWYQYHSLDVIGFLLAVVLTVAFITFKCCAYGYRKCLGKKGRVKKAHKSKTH
More on the design: host or cells: Schizosaccharomyces pombe. The settings on record: fission yeast, Dragan et al.; cited from earlier work.

In data set [2] the target is T2, UGT1A6. The experiment in a line: Glucuronide production in resting S. cerevisiae AH22 cells co-expressing UDPGDH and UGT1A6. Conditions: UGT1A6. It counts as cell-based. More on the design: expressed in transfected cells; host or cells: Saccharomyces cerevisiae AH22. The protocol:
Each phase was analyzed by UPLC system.
Time course of conversion in the transformant with the highest activity of glucuronidation (AH22: pAUR/At.UDPGDH+pGYR/hUGT1A6) was examined (FIG. 6).
Glucose concentration dependence of conversion in the transformant with the highest activity of glucuronidation (AH22: pAUR/At.UDPGDH+pGYR/hUGT1A6) was examined (FIG. 7).

The next data set deals with T3, hUGT1A1 (Homo sapiens, UniProt P22309).
T3 sequence (P22309 28-533): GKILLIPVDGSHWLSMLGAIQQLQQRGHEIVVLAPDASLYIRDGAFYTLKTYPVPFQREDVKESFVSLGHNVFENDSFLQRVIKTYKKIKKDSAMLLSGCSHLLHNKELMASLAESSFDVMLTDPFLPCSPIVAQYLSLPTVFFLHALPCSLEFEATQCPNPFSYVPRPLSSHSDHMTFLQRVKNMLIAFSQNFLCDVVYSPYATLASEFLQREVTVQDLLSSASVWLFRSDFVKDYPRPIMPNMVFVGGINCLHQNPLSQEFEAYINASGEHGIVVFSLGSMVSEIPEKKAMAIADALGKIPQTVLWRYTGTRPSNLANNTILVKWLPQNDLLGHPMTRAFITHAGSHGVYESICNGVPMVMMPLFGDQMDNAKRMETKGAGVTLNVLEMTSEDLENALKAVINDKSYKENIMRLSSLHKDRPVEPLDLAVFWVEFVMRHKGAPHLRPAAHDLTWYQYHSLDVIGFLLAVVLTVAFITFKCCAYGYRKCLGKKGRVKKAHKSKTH
The experiment in a line: Glucuronide production in resting S. cerevisiae AH22 cells co-expressing UDPGDH and UGT1A1. The settings on record: UGT1A1.

For another data set, the target named is T4, ratCYP1A1 and UGT1A6 (UniProt P00185+P19224).
T4 construct: expressed in transfected cells; host or cells: Saccharomyces cerevisiae AH22
T4 sequence (P00185 2-524): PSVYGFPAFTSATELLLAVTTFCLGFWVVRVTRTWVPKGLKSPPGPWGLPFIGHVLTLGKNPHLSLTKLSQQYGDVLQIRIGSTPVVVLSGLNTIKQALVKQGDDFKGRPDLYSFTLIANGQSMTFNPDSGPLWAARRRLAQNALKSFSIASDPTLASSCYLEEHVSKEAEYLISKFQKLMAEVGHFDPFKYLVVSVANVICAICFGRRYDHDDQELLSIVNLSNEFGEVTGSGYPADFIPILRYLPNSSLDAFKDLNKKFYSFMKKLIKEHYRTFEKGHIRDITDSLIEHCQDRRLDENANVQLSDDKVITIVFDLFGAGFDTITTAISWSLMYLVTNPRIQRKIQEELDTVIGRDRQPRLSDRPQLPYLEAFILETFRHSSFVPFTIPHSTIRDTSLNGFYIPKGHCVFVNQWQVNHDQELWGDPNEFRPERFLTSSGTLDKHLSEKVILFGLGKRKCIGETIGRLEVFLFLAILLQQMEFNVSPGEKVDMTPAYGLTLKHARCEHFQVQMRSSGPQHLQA
T4 sequence (P19224 27-532): T2 sequence (P19224 27-532)
Put plainly: Resting yeast cells co-expressing UDPGDH, UGT1A6 and rat CYP1A1. It counts as cell-based. The settings on record: 1 mM 7-ethoxycoumarine, 8% glucose, 30° C., 72 hrs. The text has this: In the precursor of most glucuronide, hydroxyl groups are introduced by P450-dependent monooxynenation. To analyze the structure and function of these xenobiotic metabolizing enzymes the expression system of several mammalian P450 and UGT isoforms was constructed in budding yeast cells, Saccharomyces cerevisiae AH22. This in vitro system is able to convert 7-ethoxycoumarine to its glucuronide via hydroxyl intermediate, 7-hydroxycoumarine (Ref 6). Yeast cells lack the ability of production of UDP-glucuronic acid (UDP-GlcUA) from UDP-glucose to synthesize the glucuronide in whole cells. To achieve the sequential production of hydroxyl intermediate and glucuronidation, co-expression yeast system containing UDPGDH, UGT, and P450 was constructed using combination of expression vectors (pAUR-At.UDPGDH/UGT1A6 and pGYR/ratCYP1A1, No. 5 in Table 2). […] Each phase was analyzed by UPLC system (FIG. 13).

The target in another data set is T5, CYP2D6 and UGT1A8 (Homo sapiens, UniProt P10635).
T5 construct: expressed in transfected cells; host or cells: Saccharomyces cerevisiae
T5 sequence (P10635 whole entry): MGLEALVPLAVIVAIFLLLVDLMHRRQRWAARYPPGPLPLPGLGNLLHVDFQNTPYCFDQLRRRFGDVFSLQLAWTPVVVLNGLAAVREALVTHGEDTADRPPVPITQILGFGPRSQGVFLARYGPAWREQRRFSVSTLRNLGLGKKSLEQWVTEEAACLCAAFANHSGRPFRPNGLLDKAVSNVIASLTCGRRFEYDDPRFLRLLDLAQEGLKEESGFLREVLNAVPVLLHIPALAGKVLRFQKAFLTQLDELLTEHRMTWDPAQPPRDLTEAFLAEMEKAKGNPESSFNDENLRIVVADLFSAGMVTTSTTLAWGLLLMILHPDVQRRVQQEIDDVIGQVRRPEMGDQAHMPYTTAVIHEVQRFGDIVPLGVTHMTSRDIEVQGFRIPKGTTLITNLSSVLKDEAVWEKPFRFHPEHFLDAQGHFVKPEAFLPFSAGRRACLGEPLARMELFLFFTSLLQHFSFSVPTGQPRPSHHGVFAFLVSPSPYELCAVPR
Put plainly: Resting yeast cells with UDPGDH, human UGT and human P450. The class given is cell-based. The settings on record: human P450 2D6 and human UGT1A8; 1 mM 7-ethoxycoumarine. The protocol:
To achieve the sequential production of hydroxyl intermediate and glucuronidation, co-expression yeast system containing UDPGDH, UGT, and P450 was constructed using combination of expression vectors (pAUR-ratUDPGDH/UGT1A6 and pPYR/humanCYP).
Each phase was analyzed by UPLC system (FIG. 15 and Table 7).
FIG. 15 indicated reverse phase HPLC elution pattern of metabolites from 7-ethoxycoumarine using resting yeast cells containing UDPGDH, human UGT1A8, and human P450 2D6. […] Each hydroxyl intermediates further were metabolized to corresponding glucuronides by human UGT1A8.

Where [3] appears, read: budding yeast, 0.5 mM 4-methylumberrferone, 8% (w/v) glucose, 30° C., 24 hrs.

Molecules are shown by their SMILES. Read-outs that look alike come from different tables or passages of the source.

Procedure for hUGT1A1: To confirm the production of 7-hydroxycoumarine glucuronide in the resting yeast cells containing UDPGDH and UGT, transformants were cultivated in selection medium at 30° C., 48 hrs, and the resultant yeast cells were suspended with appropriate buffer solution containing 0.1-1 mM 7-hydroxycoumarine and 1-8% (w/v) glucose. After incubation at 30° C., 24 hrs, 2-fold volume of chloroform:methanol (3:1, v/v) was added to reaction medium containing yeast cells. Centrifugation of extracts was separated to upper water and lower organic phase. Lower organic phase were evaporated and redissolved in 200 μl acetonitrile. Each phase was analyzed by UPLC system. Condition of analysis are described below; column: Cosmosil 2.5C18-MS-II (2.0 mm×100 mm, nacalai tesque), flow rate 0.5 ml/min, detection 320 nm, temperature 45° C. Condition of gradient elution: water-acetonitrile with 0.5% (v/v) trifluoroacetic acid, 10% (v/v) acetonitrile (4 min), 10-70% acetonitrile (6 min), 70-10% acetonitrile (2 min), 10% acetonitrile (4 min).
To confirm the production of quercetin glucuronide in the resting yeast cells containing UDPGDH and UGT (pAUR/At.UDPGDH+pGYR/hUGT1A1), transformants were cultivated in selection medium at 30° C., 48 hrs, and the resultant yeast cells were suspended with 0.1 M potassium phosphate buffer (pH 7.4) containing 0.2 mM quercetin and 8% (w/v) glucose. After incubation at 30° C., 24 hrs, 2-fold volume of chloroform:methanol (3:1, v/v) was added to reaction medium containing yeast cells. Centrifugation of extracts was separated to upper water and lower organic phase. Lower organic phase were evaporated and redissolved in 200 μl acetonitrile. Quercetin glucuronides in yeast cells was isolated and detected by WAKOPAK™ Navi C30-5 (3 mm×150 mm, Wako Chemical)-column-HPLC system with followed condition; flow rate; 0.4 ml/min, detection; 370 nm, temperature 37° C. Condition of gradient elution: water-acetonitrile with 0.5% (v/v) phosphoric acid, 18% (v/v) acetonitrile (10 min), 18-55% acetonitrile (10 min), 55% acetonitrile (5 min).
To compare the production ability of glucuronide in budding (Saccharomyces cerevisiae) and fission yeast (Schizosaccharomyces pombe) containing UDPGDH and UGT, several transformants (No. 4 in Table 2 and transformant with N-terminal modified UGT1A1) were selected for the assay. These transformants were cultivated in selection medium at 30° C., 48 hrs, and the resultant yeast cells were suspended with appropriate buffer solution containing 0.5 mM 4-methylumberrferone and 8% (w/v) glucose. After incubation at 30° C., 24 hrs, 2-fold volume of chloroform:methanol (3:1, v/v) was added to reaction medium containing yeast cells. Centrifugation of extracts was separated to upper water and lower organic phase. Lower organic phase were evaporated and redissolved in 200 μl acetonitrile. Each phase was analyzed by UPLC system.
Condition of analysis are described below; column: COSMOSIL™ 2.5C18-MS-II (2.0 mm×100 mm, Nacalai Tesque), flow rate 0.5 ml/min, detection 320 nm, temperature 45° C. Condition of gradient elution: water-acetonitrile with 0.1% (v/v) trifluoroacetic acid, 10% acetonitrile (4 min), 10-70% acetonitrile (6 min), 70-10% acetonitrile (2 min), 10% acetonitrile (3 min).

On to `Cc1cc(=O)oc2cc(O[C@@H]3O[C@H](C(=O)O)[C@@H](O)[C@H](O)[C@H]3O)ccc12.O` [4-metylumberrferone glucuronide, 4-methylumberrferone glucuronide], for which the production of glucuronide on UGT1A1 was 1.8 µM/day; at UGT1A6 [1], 3.5 µM/day; on UGT1A6 [2] (setting [3]), 195.7 µM/day; at hUGT1A1 (setting [3]) it was 20.2 µM/day. In addition, the production of glucuronide per biomass dry weight is 0.14 µmol/day/g dry weight at UGT1A1 and 2.6 µmol/day/g dry weight at hUGT1A1 (budding yeast). The “production ratio of glucuronide, budding yeast higher than fission yeast” value at UGT1A6 [2] was determined as 50; at hUGT1A1, 10.

For `CCOc1ccc2ccc(=O)oc2c1` [7-ethoxycoumarine], the “sequential P450-UGT metabolism (FIG. 13)” value on ratCYP1A1 and UGT1A6 is “deethylated by P4501A1 and the resultant 7-hydroxycoumarine (●) was glucuronidated by UGT1A6 to its glucuronide”. On CYP2D6 and UGT1A8, the “metabolites formed (FIG. 15)” value is on record as “metabolized to 7-hydroxycoumarine or 3-hydroxy-7-ethoxycoumarine by human P450 2D6”.
